Where two headings read alike, the source gives them in different places.
Assays:
HDAC7 = molecular target: T1, HDAC7 (Homo sapiens, UniProt Q8WUI4); assay: HDAC biochemical activity measurement (fluorescent substrate deacetylation);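 note: fluorogenic deacetylation assay using acetyl-lysine substrate at 20 µM, enzyme and compound incubated 30 min at 37 °C, then developer added, fluorescence read at 360/460 nm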; conditions: HDAC7; 37° C. 30 minutes
T1 sequence (Q8WUI4 1-952): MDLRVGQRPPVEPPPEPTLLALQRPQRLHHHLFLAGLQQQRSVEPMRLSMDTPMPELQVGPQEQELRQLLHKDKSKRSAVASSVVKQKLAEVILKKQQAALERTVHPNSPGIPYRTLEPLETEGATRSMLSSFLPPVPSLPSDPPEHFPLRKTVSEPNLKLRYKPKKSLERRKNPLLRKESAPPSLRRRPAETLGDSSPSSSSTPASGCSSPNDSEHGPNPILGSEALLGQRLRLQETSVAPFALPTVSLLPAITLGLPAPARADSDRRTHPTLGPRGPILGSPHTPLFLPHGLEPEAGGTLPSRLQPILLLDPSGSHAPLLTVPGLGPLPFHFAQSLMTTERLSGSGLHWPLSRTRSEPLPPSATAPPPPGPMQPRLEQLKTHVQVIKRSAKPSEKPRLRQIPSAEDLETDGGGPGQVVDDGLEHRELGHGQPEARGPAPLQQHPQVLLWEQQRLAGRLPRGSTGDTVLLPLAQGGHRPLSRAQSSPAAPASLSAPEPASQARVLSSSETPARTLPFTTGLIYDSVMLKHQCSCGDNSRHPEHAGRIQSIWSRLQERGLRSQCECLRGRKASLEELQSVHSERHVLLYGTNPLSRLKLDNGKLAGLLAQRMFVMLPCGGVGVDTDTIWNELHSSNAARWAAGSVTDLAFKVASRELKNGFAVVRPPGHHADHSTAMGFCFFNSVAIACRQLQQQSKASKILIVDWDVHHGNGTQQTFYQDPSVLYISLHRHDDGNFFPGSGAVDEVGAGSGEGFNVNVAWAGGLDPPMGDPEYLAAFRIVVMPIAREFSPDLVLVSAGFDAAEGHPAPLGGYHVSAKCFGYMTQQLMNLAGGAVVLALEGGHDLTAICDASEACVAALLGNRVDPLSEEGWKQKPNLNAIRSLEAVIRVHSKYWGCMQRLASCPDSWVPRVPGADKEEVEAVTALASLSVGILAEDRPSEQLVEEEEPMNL

[1] = tested on: A549 (human lung cancer cells); assay: MTT cancer cell growth inhibition; type: cell-based; conditions: Homo sapiens, A549, 72 h, MTT, 72 hours incubation, read-out: GI50 A54
Description: (§1) MTT assay principle is yellow MTT can penetrate membrane into the cell, succinic dehydrogenase of the mitochondria in living cells can make exogenous MTT reduction of insoluble in water of blue-violet acicular formazan for crystallization and deposition in the cell, crystallization can be dissolved dimethyl sulfoxide (DMSO) solution, detected its absorbance at 490 nm/570 nm wavelength by enzyme-linked immunosorbent assay, which can reflect the number of cells.
(§2) Using DMEM+10% FBS culture medium or using 1640+10% FBS culture, respectively.
(§3) a) Cells were seeded in 96-well plates with the inoculation of 1500/well, 190 μl/hole, 37° C., 5% of CO2 incubator overnight;
(§4) b) The next day each well was added 10 μl of different drugs. The final concentration of drug was 10^−5˜10^−10M, three parallel holes; 37° C., 5% CO2 culture incubator for 72 hours incubation;
(§5) c) Per well was added 20 μl 5 mg/ml of MTT, 37° C., 5% CO2 culture incubator for 4 hours incubation;
(§6) d) The supernatant was discarded. Each well was added 100 μl of DMSO and oscillation;
(§7) e) 570 nm readings. Calculate cell viability. GI50 calculation based on the results.

[2] = tested on: BGC-823 (human gastric cancer cells); assay: MTT cancer cell growth inhibition; type: cell-based; conditions: Homo sapiens, BGC-823, 72 h, MTT, 72 hours incubation, read-out: GI50 BG
Description: as §1, §2, §3, §4, §5, §6, §7

[3] = tested on: Bel-7402 (human hepatoma cells); assay: MTT cancer cell growth inhibition; type: cell-based; conditions: Homo sapiens, Bel-7402, 72 h, MTT, 72 hours incubation, Bel-7402 cells; read-out: GI50 Bel-7402
Description: as §1, §2, §3, §4, §5, §6, §7

[4] = tested on: DU145 (human prostate cancer cells); assay: MTT cancer cell growth inhibition; type: cell-based; conditions: Homo sapiens, DU-145, 72 h, MTT, 72 hours incubation, read-out: GI50 Du1
Description: as §1, §2, §3, §4, §5, §6, §7

[5] = tested on: H1975 (non-small cell lung adenocarcinoma); assay: MTT cancer cell growth inhibition; type: cell-based; conditions: Homo sapiens, NCI-H1975, 72 h, MTT, 72 hours incubation, H1975 cells; read-out: GI50 H1975
Description: as §1, §2, §3, §4, §5, §6, §7

[6] = tested on: HCC827 (human non-small cell lung cancer cells); assay: MTT cancer cell growth inhibition; type: cell-based; conditions: Homo sapiens, HCC827, 72 h, MTT, 72 hours incubation, HCC827 cells; read-out: GI50 HCC827
Description: as §1, §2, §3, §4, §5, §6, §7

[7] = tested on: HT1080 (human fibrosarcoma cells); assay: MTT cancer cell growth inhibition; type: cell-based; conditions: Homo sapiens, HT-1080, 72 h, MTT, 72 hours incubation, read-out: GI50 HT1
Description: as §1, §2, §3, §4, §5, §6, §7

[8] = tested on: Hela (human cervical cancer cells); assay: MTT cancer cell growth inhibition; type: cell-based; conditions: Homo sapiens, HeLa, 72 h, MTT, 72 hours incubation, read-out: GI50 Hela
Description: as §1, §2, §3, §4, §5, §6, §7

[9] = tested on: Huh-7 (human hepatoma cells); assay: MTT cancer cell growth inhibition; type: cell-based; conditions: Homo sapiens, Huh-7, 72 h, MTT, 72 hours incubation, Huh-7 cells; read-out: GI50 Huh-7
Description: as §1, §2, §3, §4, §5, §6, §7

[10] = tested on: K562 (human leukemia cells); assay: MTT cancer cell growth inhibition; type: cell-based; conditions: Homo sapiens, K562, 72 h, MTT, 72 hours incubation, K562 cells; read-out: GI50 K562
Description: as §1, §2, §3, §4, §5, §6, §7

[11] = tested on: KBM-5 (human chronic myelogenous leukemia); assay: MTT cancer cell growth inhibition; type: cell-based; conditions: Homo sapiens, KBM5, 72 h, MTT, 72 hours incubation, KBM-5 cells; read-out: GI50 KBM-5
Description: as §1, §2, §3, §4, §5, §6, §7

[12] = tested on: KBM5-T315I (human chronic myelogenous leukemia); assay: MTT cancer cell growth inhibition; type: cell-based; conditions: Homo sapiens, 72 h, MTT, 72 hours incubation, KBM5-T315I cells; read-out: GI50 KBM5-T315I
Description: as §1, §2, §3, §4, §5, §6, §7

[13] = tested on: MCF-7 (human breast cancer cells); assay: MTT cancer cell growth inhibition; type: cell-based; conditions: Homo sapiens, MCF7, 72 h, 72 hours incubation, read-out: GI50 MCF
Description: as §1, §2, §3, §4, §5, §6, §7

[14] = tested on: MDA-MB-231 (breast cancer cells); assay: MTT cancer cell growth inhibition; type: cell-based; conditions: Homo sapiens, MDA-MB-231, 72 h, read-out: GI50 MDA-MB-231, MTT, 72 hours incubation, MDA-MB-231 cells
Description: as §1, §2, §3, §4, §5, §6, §7

[15] = tested on: MOLT-4 (human acute lymphoblastic leukemia cells); assay: MTT cancer cell growth inhibition; type: cell-based; conditions: Homo sapiens, MOLT-4, 72 h, MTT, 72 hours incubation, read-out: GI50 Mol
Description: as §1, §2, §3, §4, §5, §6, §7

[16] = tested on: N-87 (human gastric cancer cells); assay: MTT cancer cell growth inhibition; type: cell-based; conditions: Homo sapiens, 72 h, MTT, 72 hours incubation, N-87 cells; read-out: GI50 N-87
Description: as §1, §2, §3, §4, §5, §6, §7

[17] = tested on: PANC-1 (Pac-1, human pancreatic cancer cells); assay: MTT cancer cell growth inhibition; type: cell-based; conditions: Homo sapiens, PANC-1, 72 h, MTT, 72 hours incubation, read-out: GI50 PAN
Description: as §1, §2, §3, §4, §5, §6, §7

[18] = tested on: SGC-7901 (human gastric cancer cells); assay: MTT cancer cell growth inhibition; type: cell-based; conditions: Homo sapiens, SGC-7901, 72 h, MTT, 72 hours incubation, SGC-7901 cells; read-out: GI50 SGC-7901
Description: as §1, §2, §3, §4, §5, §6, §7

[19] = tested on: U937 (human leukemia cells); assay: MTT cancer cell growth inhibition; type: cell-based; conditions: Homo sapiens, U-937, 72 h, MTT, 72 hours incubation, read-out: GI50 U93
Description: as §1, §2, §3, §4, §5, §6, §7

[20] = tested on: lncap (prostate cancer cells); assay: MTT cancer cell growth inhibition; type: cell-based; conditions: Homo sapiens, LNCaP, 72 h, MTT, 72 hours incubation, read-out: GI50 lnca
Description: as §1, §2, §3, §4, §5, §6, §7

IC50 HDAC7 (HDAC7) | GI50 ([1]; A549 cells) [nM] | GI50 ([2]; BGC-823 cells) [nM] | GI50 [3] [nM] | GI50 ([4]; DU145 cells) [nM] | GI50 [5] [nM] | GI50 [6] [nM] | GI50 ([7]; HT1080 cells) [nM] | GI50 ([8]; Hela cells) [nM] | GI50 [9] [nM] | GI50 [10] [nM] | GI50 [11] [nM] | GI50 [12] [nM] | GI50 ([13]; MCF-7 cells) [nM] | GI50 [14] [nM] | GI50 ([15]; MOLT-4 cells) [nM] | GI50 [16] [nM] | GI50 ([17]; PANC-1 cells) [nM] | GI50 [18] [nM] | GI50 ([19]; U937 cells) [nM] | Compound | other results
no activity | 20 | 30 | 63 | 60 | 70 | 29 | 80 | 50 | 75 | 32 | 21 | 41 | 60 | 35 | 80 | 39 | 30 | 42 | 20 | C/C=C1\NC(=O)c2ccc(SC)c(n2)CNC(=O)C[C@@H](/C=C/CCSC(=O)CCCCCCC)OC(=O)[C@H](C(C)C)NC1=O [Compound 149] | GI50 ([20]; lncap cells): 50 nM
no activity | – | – | 11 | – | 35 | 58 | – | – | 73 | 28 | 67 | 71 | – | 26 | – | 46 | – | 31 | – | C/C=C1\NC(=O)c2ccc(F)c(n2)CNC(=O)C[C@@H](/C=C/CCSC(C)=O)OC(=O)[C@@H](C)NC1=O [Compound 102] | GI50 [1]: 50 nM; GI50 [2]: 30 nM; GI50 [4]: 20 nM; GI50 [7]: 50 nM; GI50 [8]: 30 nM; GI50 [13]: 30 nM; GI50 [15]: 30 nM; GI50 [17]: 50 nM; GI50 [19]: 40 nM; GI50 [20]: 30 nM
no activity | 20 | 30 | 32 | 60 | 19 | 27 | 80 | 50 | 54 | 55 | 53 | 28 | 40 | 35 | 50 | 75 | 50 | 96 | 20 | C/C=C1\NC(=O)c2nc(ccc2SC)CCNC(=O)C[C@@H](/C=C/CCSC(C)=O)OC(=O)[C@H](C(C)C)NC1=O [Compound 223] | GI50 ([20]; lncap cells): 10 nM

— US10065990B2, “Cyclic peptide compound, and preparation method, pharmaceutical composition and use thereof” (HANGZHOU GUANYU BIO-MEDICAL CO., LTD, priority 2013, dated 2018)
